Assay results as given in the supplement of paper PMC11061612.

Columns and labels:
Assay in all cases: Bliss excess, mean over the matrix (fraction); higher = more synergy
[1] = system: IM-9 (Non-Cancerous)
Summary of the method: (§1)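 Cell lines in DMEM/F12 or RPMI with 10% FBS were plated in 1536-well plates, held 24 hours at 37°C, 5% CO2, then given two-drug dose matrices for 72 hours (DMSO typically 0.2%). Viability was read by CellTiter-Glo 2.0 luminescence and scaled as inhibition from 0 (vehicle wells) to 1 (blank wells). Combination Emax is the second-highest inhibition in the matrix; Bliss excess is observed combination effect minus expected EA + EB − EA·EB, EA and EB being single-agent effects.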

[2] = system: ESO26 (Esophageal Adenocarcinoma)
Summary of the method: as §1

[3] = system: EPLC-272H (Other Solid Carcinomas)
Summary of the method: as §1

[4] = system: DMS-53 (Small Cell Lung Carcinoma)
Summary of the method: as §1

[5] = system: SK-HEP-1 (Hepatocellular Carcinoma)
Summary of the method: as §1

[6] = system: EW-7 (Ewing's Sarcoma)
Summary of the method: as §1

[7] = system: OACp4C (Esophageal Adenocarcinoma)
Summary of the method: as §1

[8] = system: Jurkat (T-Lymphoblastic Leukemia)
Summary of the method: as §1

[9] = system: RH-41 (Rhabdomyosarcoma)
Summary of the method: as §1

[10] = system: NCI-H1703 (Squamous Cell Lung Carcinoma)
Summary of the method: as §1

[11] = system: HCC70 (Breast Carcinoma)
Summary of the method: as §1

[12] = system: COLO-792 (Melanoma)
Summary of the method: as §1

[13] = system: KP-N-YN (Neuroblastoma)
Summary of the method: as §1

[14] = system: NCI-H441 (Lung Adenocarcinoma)
Summary of the method: as §1

[15] = system: JHU-022 (Oral Cavity Carcinoma)
Summary of the method: as §1

[16] = system: NCI-H1651 (Lung Adenocarcinoma)
Summary of the method: as §1

[17] = system: LS-411N (Colorectal Carcinoma)
Summary of the method: as §1

[18] = system: NB13 (Neuroblastoma)
Summary of the method: as §1

[19] = system: JHH-2 (Hepatocellular Carcinoma)
Summary of the method: as §1

[20] = system: PEO1 (Ovarian Carcinoma)
Summary of the method: as §1

SMILES | Bliss excess [1] | Bliss excess [2] | Bliss excess [3] | Bliss excess [4] | Bliss excess [5] | Bliss excess [6] | Bliss excess [7] | Bliss excess [8] | Bliss excess [9] | Bliss excess [10] | Bliss excess [11] | Bliss excess [12] | Bliss excess [13] | Bliss excess [14] | Bliss excess [15] | Bliss excess [16] | Bliss excess [17] | Bliss excess [18] | Bliss excess [19] | Bliss excess [20]
CC1(C)CCC(CN2CCN(c3ccc(C(=O)NS(=O)(=O)c4ccc(NCC5CCOCC5)c([N+](=O)[O-])c4)c(Oc4cnc5[nH]ccc5c4)c3)CC2)=C(c2ccc(Cl)cc2)C1 [Venetoclax] + C[C@@H](Nc1cc(F)cc(F)c1)c1cc(C(=O)N(C)C)cc2c(=O)cc(N3CCOCC3)oc12 [AZD8186] (first compound max 1 µM, 7x7, partner max 3 µM) | -0.0608 | -0.0277 | 0.0111 | -0.0141 | -0.0299 | 0.0048 | 0.0104 | 0.0084 | 0.0587 | 0.0037 | 0.0376 | 0.0036 | 0.104 | -0.0304 | -0.0563 | -0.0212 | 0.0099 | -0.0171 | 0.0003 | -0.0427
COc1cccc2c1C(=O)c1c(O)c3c(c(O)c1C2=O)C[C@@](O)(C(=O)CO)C[C@@H]3O[C@H]1C[C@H](N)[C@H](O)[C@H](C)O1 [Doxorubicin] + Cc1cc2ncnn2cc1Nc1ncc2c(n1)n(C1CCOCC1)c(=O)n2C [AZD7648] (first compound max 1 µM, 7x7, partner max 10 µM) | 0.127 | 0.032 | 0.0568 | 0.0197 | 0.0292 | 0.0058 | 0.0636 | 0.181 | 0.116 | 0.0451 | 0.0344 | -0.0081 | 0.0805 | 0.0125 | -0.0307 | 0.024 | 0.0365 | 0.0808 | 0.0229 | -0.0214
Cc1c2c(nn1C)CSCc1cc(n(C)n1)CSc1cc(c3ccccc3c1)OCCCc1c(C(=O)O)n(C)c3c-2c(Cl)ccc13 [AZD5991] + C1CN(CCC1(C(=O)N[C@@H](CCO)C2=CC=C(C=C2)Cl)N)C3=NC=NC4=C3C=CN4 [Capivasertib] (first compound max 1 µM, 7x7, partner max 3 µM) | -0.0616 | -0.0014 | 0.0341 | 0.0168 | 0.0194 | 0.0459 | 0.019 | 0.0115 | -0.0334 | 0.0157 | 0.0761 | 0.0076 | -0.0382 | -0.0023 | -0.0273 | 0.0279 | -0.0038 | 0.0719 | 0.0621 | -0.0428
Cc1c2c(nn1C)CSCc1cc(n(C)n1)CSc1cc(c3ccccc3c1)OCCCc1c(C(=O)O)n(C)c3c-2c(Cl)ccc13 [AZD5991] + Cc1cc2ncnn2cc1Nc1ncc2c(n1)n(C1CCOCC1)c(=O)n2C [AZD7648] (first compound max 1 µM, 7x7, partner max 10 µM) | 0.014 | -0.0372 | -0.0575 | 0.0011 | -0.0463 | -0.0105 | 0.008 | -0.0234 | -0.0443 | 0.0168 | -0.052 | 0.0234 | -0.0516 | -0.0529 | -0.028 | 0.0096 | -0.0492 | 0.0153 | -0.0272 | -0.0279
COc1cccc(OCCCN)c1-c1cc(Nc2cnc(C#N)cn2)n[nH]1 [Prexasertib] + CN(C)CCCOc1ccc(-c2ccc3ncc4c(c3c2)n(C2CCOCC2)c(=O)n4C)cn1 [AZD0156] (first compound max 1 µM, 7x7, partner max 1 µM) | -0.0022 | 0.0207 | -0.0602 | -0.0142 | -0.0206 | 0.025 | -0.0162 | -0.0264 | -0.0209 | -0.0295 | -0.0319 | -0.0447 | 0.0202 | -0.0994 | -0.0231 | -0.107 | -0.0336 | -0.0268 | -0.0371 | -0.0168
NC1(C(=O)N[C@@H](CCO)c2ccc(Cl)cc2)CCN(c2ncnc3[nH]ccc23)CC1 [Capivasertib] + CC(=O)c1c(C)c2cnc(Nc3ccc(N4CCNCC4)cn3)nc2n(C2CCCC2)c1=O [Palbociclib] (first compound max 10 µM, 7x7, partner max 10 µM) | 0.0229 | -0.0512 | -0.0065 | 0.0477 | -0.109 | 0.01 | -0.0239 | 0.0314 | -0.047 | 0.0189 | 0.0198 | -0.0643 | -0.043 | -0.0304 | -0.0186 | -0.0393 | -0.0119 | -0.076 | -0.0028 | -0.0509
CC(=O)Nc1cccc(-n2c(=O)n(C3CC3)c(=O)c3c(Nc4ccc(I)cc4F)n(C)c(=O)c(C)c32)c1 [Trametinib] + Cc1nc(-c2cn3c(n2)-c2ccc(-c4cnn(C(C)(C)C(N)=O)c4)cc2OCC3)n(C(C)C)n1 [Taselisib] (first compound max 1 µM, 7x7, partner max 10 µM) | 0.0008 | 0.147 | 0.041 | 0.0285 | 0.0781 | 0.0479 | 0.0416 | 0.0414 | 0.0419 | 0.0652 | 0.149 | 0.113 | 0.0046 | 0.102 | 0.0194 | 0.0354 | 0.125 | 0.0088 | -0.0221 | 0.204
